Laboratory results as given in patent US10738080B2, “Inhibitors of beta integrin-G protein alpha subunit binding interactions” (priority 2010, dated 2020).

What was measured:
c-Src = system: c-Src
Description: Two different Gα13 siRNA target sequences were used: siRNA #1, 5′-[…] (SEQ ID NO: 56); siRNAi #2, 5′-[…] (SEQ ID NO: 57). Scrambled siRNA sequence is: 5′-[…]-3′ (SEQ ID NO: 58). These sequences are conserved in hamsters and mice. Lentivirus was prepared by co-transfection of pLL3.7-scrambled siRNA or pLL3.7-Gα13 siRNA (#1 and #2) with pLP1, pLP2 and pLP/VSVG plasmids (Invitrogen) into ˜90% confluent 293FT cells using Lipofectamine 2000. 48 hours after transfection, cell culture medium containing virus was filtered, titered and stored at −80° C. Bone manow cells from 6-8 week old healthy C57/BL mice were isolated aseptically from femurs and tibias. Stem cells were negatively selected by MACS Lineage cell depletion kit (Miltenyi Biotec) and cultured in RPMI 1640 complete medium with 10 ng/ml interleukin-3, 10 ng/ml interleukin-6, 10 ng/ml granulocyte-macrophage colony stimulating factor (GM-CSF), and 100 ng/ml stem cell factor (SCF). 50 multiplicity of infection (MOI) lenti-virus was used to infect mice bone marrow stem cells twice with 6 μg/ml polybrene. 48 hours after infection, 5×10^6 stem cells resuspended in PBS were transplanted by retrobulbar injection into lethally irradiated (10.5 Gy) C57/BL mice one day after irradiation (S11). The siRNA-resistant mutants of Gα13 were generated by PCR.

RhoA [1] = conditions: mouse platelets from siRNA-transfected stem cells
Description: (FIG. 6B) Scrambled siRNA, Gα13 siRNA #1- and Gα13 siRNA #2-transfected platelets were allowed to adhere to immobilized fibrinogen for the indicated time, and analyzed for c-Src activation and RhoA activity.
(§1) Platelets in modified Tyrode's buffer or adherent on immobilized fibrinogen were lysed quickly in 0.8 ml lysis buffer (50 mM Tris, pH 7.4, 10 mM MgCl2, 500 mM NaCl, 1% Triton X-100, 0.1% SDS, 0.5% deoxycholate, 10 μg/ml each of aprotinin and leupeptin, 1 mM phenylmethylsulfonyl fluoride, and 200 μM sodium vanadate). Lysates were cleared by centrifugation at 18,000 g for 2 minutes at 4° C., and the supernatant was incubated for 1 hour with 30 μg purified GST-Rhotekin RhoA-binding domain fusion protein (GST-RBD) bound to glutathione-Sepharose beads (S10). Samples were washed three times using washing buffer (50 mM Tris, pH 7.4, 10 mM MgCl2, 150 mM NaCl, 1% Triton X-100) and then immunoblotted with an anti-RhoA monoclonal antibody. Cell lysates were also immunoblotted with anti-RhoA as loading control.

mouse platelets = assay: Mouse platelet spreading on immobilized fibrinogen; type: cell-based
human platelets [2] = type: cell-based
Description: The clots were photographed at various time points. […] Statistical significance was determined using t-test.
Studies using human platelets were approved by institutional review board of University of Illinois at Chicago.
Coverslides were pre-coated with 100 μg/ml fibrinogen and blocked with 5% BSA in PBS. 300 μl αIIbβ3-expressing CHO cells (expressing WT or mutant integrins; 1×10^5/ml) or platelets (1×10^7/ml) suspended in Tyrode's buffer were added to coverslides and incubated at 37° C. for various lengths of time. Cells were fixed with 4% paraformaldehyde (PFA) for 10 minutes and permeabilized with 0.1% Triton X-100 in PBS for 2 minutes. After blocking with 5% BSA for 10 minutes, coverslides were incubated with 0.2 μg/ml mAb 15, or Alexa Fluor-546 conjugated phalloidin. For mouse platelets re-express wild type β3 or the AAA mutant of β3, β3 was immuno-stained with the anti-β3 monoclonal antibody MAb 15 and Alexa Fluor-546 conjugated phalloidin. The slides were scanned with a Zeiss LSM5 10 META confocal microscope as previously described^11

[3] = C57BL/6 mice, FeCl3 carotid artery injury, compared to scrambled control ERAFEE
Description: In this study, adult mice are anesthetized by intraperitoneal injection of pentobarbital (120 mg/kg). The left common carotid artery is surgically exposed and a miniature Doppler flow probe (Model 0.5VB; Transonic Systems, Ithaca, N.Y.) is placed on the surface of the artery. After adding 0.9% sodium chloride solution in the surgical wound to allow Doppler monitoring, baseline blood flow is recorded using a Transonic flowmeter. Thereafter, sodium chloride solution is removed and filter paper (round, 1.0 mm in diameter) saturated with 10% FeCl3 is applied to the surface of the carotid artery immediately proximal to the flow probe. After 3 minutes, the filter paper is removed, saline solution is again administered to the wound, and carotid blood flow is monitored. If occlusive thrombosis occurs to the injured carotid artery, blood flow is reduced to zero. ExE motif peptide micelles and controls are injected i.v. via the tail vein in C57BL/6 mice, then tested for occlusive thrombosis using this model.

human platelets [4] = system: human platelets
Description: Platelet aggregation assays were carried out as follows: Platelet aggregation and secretion was measured in a turbidometric platelet aggregometer (Chronolog) at 37° C. with stirring (1000 rpm). Washed platelets (3×10^8/ml) in modified Tyrode's buffer were stimulated with thrombin (Enzyme Research Laboratories). For talin knockdown platelet aggregation assay stimulated with manganese and ADP, manganese and ADP was mixed prior to experiment to achieve final concentration of 1 mM manganese and 5 μM ADP in reaction tube. Aggregation traces shown are representative of at least three independent experiments.
Platelet aggregation assays were performed with myristoylated peptide mP5, myristoylated peptide of SEQ: ID NO: 87, or their respective scarmbled control peptides, as essentially described herein. Briefly, washed human platelets were preincubated with 25, 50, 100, 250, or 500 μM peptide solubilized in DMSO.

Gα13 binding to β3 = target: T1, Gα13 binding to β3 (Homo sapiens, UniProt P05106+Q14344); assay: Co-immunoprecipitation of β3 with Gα13 from platelet lysates; conditions: platelets stimulated with thrombin, 2 mM RGDS
T1 construct: Proteins from platelet lysates were immunoprecipitated with control IgG or antibody to Gα13; The integrin αIIbβ3 was co-immunoprecipitated by anti-Gα13 antibody, but not control IgG, from platelet lysates; endogenous in cells; host or cells: washed human platelets (lysates)
T1 sequence (Q14344 1-377): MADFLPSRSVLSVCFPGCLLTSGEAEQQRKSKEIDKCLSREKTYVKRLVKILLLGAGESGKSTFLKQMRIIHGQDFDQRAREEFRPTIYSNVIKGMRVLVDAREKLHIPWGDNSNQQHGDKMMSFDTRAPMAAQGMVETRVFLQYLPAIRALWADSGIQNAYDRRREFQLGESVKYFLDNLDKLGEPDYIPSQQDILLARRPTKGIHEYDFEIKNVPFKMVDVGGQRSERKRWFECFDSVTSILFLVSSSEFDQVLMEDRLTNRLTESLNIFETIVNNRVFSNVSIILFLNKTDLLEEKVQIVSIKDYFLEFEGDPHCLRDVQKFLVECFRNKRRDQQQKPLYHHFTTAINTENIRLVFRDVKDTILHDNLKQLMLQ
T1 sequence (P05106 27-788): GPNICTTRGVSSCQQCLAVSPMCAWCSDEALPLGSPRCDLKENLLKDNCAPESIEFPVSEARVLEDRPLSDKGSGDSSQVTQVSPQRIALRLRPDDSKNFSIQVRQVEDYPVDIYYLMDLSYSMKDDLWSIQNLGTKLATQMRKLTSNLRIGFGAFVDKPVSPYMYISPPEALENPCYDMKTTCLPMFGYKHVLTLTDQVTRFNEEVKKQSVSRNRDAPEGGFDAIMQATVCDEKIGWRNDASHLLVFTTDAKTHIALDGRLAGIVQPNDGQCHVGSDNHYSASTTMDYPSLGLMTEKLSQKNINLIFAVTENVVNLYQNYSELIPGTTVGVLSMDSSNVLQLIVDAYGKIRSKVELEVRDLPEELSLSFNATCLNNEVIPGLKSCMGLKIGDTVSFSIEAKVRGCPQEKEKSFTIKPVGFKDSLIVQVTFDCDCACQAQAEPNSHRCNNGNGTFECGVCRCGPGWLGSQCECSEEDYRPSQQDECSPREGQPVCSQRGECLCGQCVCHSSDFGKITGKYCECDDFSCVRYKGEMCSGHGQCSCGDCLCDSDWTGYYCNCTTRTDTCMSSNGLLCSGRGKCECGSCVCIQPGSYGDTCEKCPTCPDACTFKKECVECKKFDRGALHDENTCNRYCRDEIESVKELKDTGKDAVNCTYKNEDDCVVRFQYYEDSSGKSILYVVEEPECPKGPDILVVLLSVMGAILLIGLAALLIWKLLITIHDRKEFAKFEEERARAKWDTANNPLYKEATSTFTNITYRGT
Description: As previously described (S7), cell lysates were incubated with 2 μg/ml of D57 (antibody to integrin αIIbβ3), LJP3 (antibody against GPIb), or mouse IgG, and further incubated with protein G-conjugated Sepharose beads. Cell lysates were also incubated with rabbit anti-Gα13 IgG antibody (1.5 μg/ml) or an equal amount of rabbit IgG and further incubated with protein A-conjugated Sepharose beads. After 3-6 washes with lysis buffer, immunoprecipitates were analyzed by SDS-polyacrylamide gel electrophoresis and Western blots with antibodies against β3 (MAb15), GPIb (anti-IbαC (S8)) or Gα13. In some experiments, 1 μM GDP, 1 μM GTPγS or 30 μM AlF4^− were added to the reaction to assess the effect of Gα13 activation on integrin binding. In other experiments, 250 μM mSRI or scrambled control peptide was incubated with platelet lysates prior to immunoprecipitation. GST bead pull down analysis was previously described (S7). Purified Gα13 was incubated with glutathione beads-bound to GST, GST-β1CD or GST-β3 CD at 4° C. overnight. Bead-bound proteins were analyzed by immunoblotting. For GST-β3CD cDNA construction, integrin-β3 cytoplasmic domain (716-762) cDNA was generated by PCR and cloned into pGEX-4T2 vector using Bam HI and Xho I restriction sites. The forward primer is 5′-[…]-3′ (SEQ ID NO: 48); the reverse primer is 5′-[…]-3′ (SEQ ID NO: 49). For GST-I31CD cDNA construction, β1 cytoplasmic domain (752-798) cDNA was amplified by PCR and cloned into pGEX-4T1 vector using EcoRI and Xho I restriction sites. The primer sequences are: (1) forward: 5′-[…]-3′ (SEQ ID NO: 50); (2) reverse: […]-3′ (SEQ ID NO: 51). GST, GST-β1CD and GST-β3CD were purified from BL21 (DE3) E. coli using glutathione-conjugated beads.
Cell lysates were incubated with rabbit anti-Gα13 IgG (1.5 μg/ml), anti-integrin β3 rabbit serum (5 μl/ml) or an equal amount of rabbit IgG or pre-immune serum at 4° C. overnight, and subsequently with protein A-conjugated Sepharose beads for 1 hour. For the integrin β3 clustering experiment, human platelets (3×10^8) were stimulated with 0.025 U/ml α-thrombin for 2 minutes at room temperature (to avoid platelet aggregation) with or without 2 mM RGDS, then incubated with 5 μl anti-integrin β3 8053 rabbit serum at room temperature for 1 hour, and 5 μg goat anti-rabbit secondary antibody for another 1 hour. Platelets were then solubilized in modified RIPA Buffer. For the un-clustering control and pre-immune serum control, cells were solubilized in modified RIPA Buffer first, than incubated with 5 μl 8053 serum or pre-immune serum. After 3-6 washes with lysis buffer, immunoprecipitates were analyzed by SDS-polyacrylamide gel electrophoresis and Western blots using antibodies against β3, talin, or Gα13. In some experiments, 500 μM control or inhibitor peptides, mP5, mP7 and mP13 were incubated with platelet lysates prior to immunoprecipitation, or 2 mM RGDS was added into washed human platelets before stimulation by 0.025 U/ml α-thrombin. GST bead pull down analysis was previously described^8. Purified Gα13 or MBP-talin head were incubated with glutathione beads-bound to GST or GST-β3CD at 4° C. overnight. Bead-bound proteins were analyzed by immunoblotting.

RhoA [5] = assay: RhoA activity assay (GST-RBD pull down) in platelets; type: cell-based, human; conditions: platelets stimulated with thrombin, 2 mM RGDS
Description: as §1

5′-GGAGATCGACAAATGCCTG [Gα13 siRNA #2]
c-Src activation (c-Src): inhibited
activation of RhoA (RhoA [1]): accelerated
platelet spreading (mouse platelets): inhibited

5′-GTCCACCTTCCTGAAGCAG [Gα13 siRNA #1]
c-Src activation (c-Src): inhibited
activation of RhoA (RhoA [1]): accelerated
platelet spreading (mouse platelets): inhibited

C[C@@H](N)[C@H]1CC[C@H](C(=O)Nc2ccncc2)CC1 [Y27632, reference compound]
inhibitory effect of Gα13 depletion on platelet spreading (reversal) (mouse platelets; Gα13-depleted mouse platelets): reversed
inhibitory effect of mP5 on platelet spreading (reversal) (human platelets [2]; platelets treated with mP5): reversed
inhibitory effect of mSRI on platelet spreading (reversal) (human platelets [2]; platelets treated with mSRI): reversed

CC(=O)Oc1ccccc1C(=O)O [aspirin, reference compound]
platelet spreading on fibrinogen (mouse platelets; mouse platelets pre-incubated with 1 mM aspirin): did not affect

FEEERA
time to occlusion [3]: increased
inhibition of platelet aggregation, doses compared to the mP5 peptide (human platelets [4]; 25-500 μM peptide in DMSO, 0.09 U/ml thrombin, washed human platelets): inhibit platelet aggregation at lower doses
concentration required for the maximal effect on in vitro platelet aggregation (human platelets [4]; preliminary dose-dependent study, DMSO solution vs micellar formulation): 250 µM

RGDS [reference compound]
Thrombin-stimulated binding of Gα13 to αIIbβ3 (Gα13 binding to β3): inhibited
RhoA inhibition simultaneous with thrombin-stimulated Gα13-αIIbβ3 binding (RhoA [5]): inhibited
